Measurements taken from PMC11720699, “Developing Allosteric Chaperones for GBA1-Associated Disorders—An Integrated Computational and Experimental Approach” (International Journal of Molecular Sciences, 2024).

Legend:
[1] = system: GlcSph; experiment: GlcSph quantification by LC/MS-MS in differentiated BE(2)-M17 cells; format: cell-based, human; conditions: GBA1 mutant BE(2)-M17 cell lines, 10 days, 25 µM
From the text: (§1) Our neuronal model uses stable BE(2)-M17 dopaminergic-like neuronal cell lines that constitutively express two prevalent GBA1 mutations, p.N370S and p.L444P [37]. These neuronal cell lines undergo post-mitotic differentiation and display a dopaminergic phenotype, neurite extension, and sphingolipid accumulation. Therefore, they serve as an excellent model for evaluating the biological efficacy of therapeutic interventions, such as our PCs, aimed at restoring GCase activity in vitro. Subsequently, we induced differentiation of BE(2)-M17 cell lines into post-mitotic neuronal cells, a crucial step for investigating the effects of lysosomal system impairment and its consequences in terms of intracellular macromolecule accumulation. Following differentiation, cells were treated for an extended period (10 days) with the selected compounds to analyze their impact on GCase stability, GCase activity, sphingolipid accumulation, and cell viability. […]
For BE(2)-M17 samples, lipid extraction to quantify sphingolipids was conducted as outlined in Navarro-Romero et al.. […] The supernatant was evaporated to dryness under a stream of nitrogen and reconstituted with 500 µL of methanol:chloroform (1:2) before being transferred into chromatography vials for quantification via liquid chromatography tandem-mass spectrometry (LC-MS/MS). […]

[2] = system: BE(2)-M17 cells; experiment: Cell viability of differentiated BE(2)-M17 cells; format: cell-based; conditions: 10 days, 25 μM
From the text: as §1
Cells were plated and treated with compound 3, as previously described. After completing the treatment, the viability of the differentiated cells was assessed by calculating the percentage of viable cells, which was determined by counting both viable and dead cells. Triplicate measurements from at least three independent samples were analyzed using a Muse Cell Analyzer cytometer. […]

CN(C(=O)c1cc(N)cc(Nc2cccc3c2OCO3)n1)c1ccccc1 [Compound 3]
effect on GlcSph (sphingolipid) levels [1]: effectively reduced accumulated sphingolipid levels
effect on cell viability [2]: improved cellular viability
